Results: patent US20230277710A1, “SYSTEM AND DEVICE FOR SANITIZING THE AIR” (The Procter & Gamble Company, priority 2022, published 2023)

Tested on: Staphylococcus aureus
Assay: Microorganism kill against airborne Staphylococcus aureus, pre and post filtration
Type: cell-based
Conditions: TEG pipetted onto hotplate @ 250° C.

OCCOCCOCCO [TEG, triethylene glycol]
Microorganism kill against Staphylococcus aureus (log10 reduction) (Post-Filtration): 3 log10 reduction
Microorganism kill against Staphylococcus aureus, time to 3 log10 reduction (Post-Filtration): in 33 min
Microorganism kill against Staphylococcus aureus (log10 reduction) (Pre-Filtration): 3 log10 reduction
Microorganism kill against Staphylococcus aureus, time to 3 log10 reduction (Pre-Filtration): in 18.2 min
